Measurements as given in patent US8685924B2, “Preventives/remedies for stress urinary incontinence and method of screening the same” (Takeda Pharmaceutical Company Limited, priority 2004, dated 2014).

Tested on: urethane-anesthetized female rats
Experiment: Antagonism of the leak point pressure increase by WAY-161503 / WAY-163909, direct bladder compression method (Example 4)
Type: in vivo, rat
Details: agonist 0.3 mg/kg, i.v., antagonist: solvent, mean ± SEM
Method: SD female rats (body weight 180-350 g) were anesthetized with urethane (Wako Pure Chemical Industries, Ltd.), and halothane (Takeda Pharmaceutical Company Limited) anesthesia was added when necessary during operation.
The spinal cord was transected at T8-9 level to eliminate the reflex voiding. The lower abdomen was incised in the median line, a catheter for intravesical pressure measurement (PE-90, Clay Adams) was inserted into the bladder and secured with a ligature, and the intravesical pressure was measured via a pressure transducer. Urine was emptized in advance by bilaterally pressing the bladder with two swabs, and a 0.1% Evans blue (Merck) solution (0.4 mL) was injected into the bladder. The bladder was gradually compressed bilaterally with two swabs, and the intravesical pressure upon saline leakage from the urethral orifice was measured and defined as a leak point pressure. The measurement of the leak point pressure was repeated, and the average value of the final five stable measures was taken as the value before drug administration. Thereafter, the drug was intravenously administered, the leak point pressure was measured again 20 min later, and the value after the drug administration was determined. DOI, mCPP and eltoprazine were dissolved in saline, and other drugs were dissolved in DMA/PEG400 (1:1), and intravenously administered at 1 ml/kg and 0.5 mg/kg, respectively. Depending on the experiment, RS-102221 or SB221284 (showing serotonin 5-HT2C receptor antagonist activity) was administered, 5 min later, WAY-161503 or WAY-163909 was administered, leak point pressure was measured 10 min later, and a competitive assay with the action of WAY-161503 or WAY-163909 was performed. RS-102221 and SB221284 were both dissolved in DMA/PEG400 (1:1), and intravenously administered at 0.5 ml/kg.

## O=C1Nc2cc(Cl)c(Cl)cc2N2CCNCC12 (stereo not drawn) [WAY-161503]
  leak point pressure after drug administration: 87.1 ± 4.3 cmH2O
  leak point pressure increase: 17.4 ± 1.9 cmH2O
baseline
  leak point pressure before drug administration: 69.7 ± 3.9 cmH2O
